Earlier results, collected in PMC10140125 (Investigational New Drugs, 2023).

Tested on: recurrent malignant gliomas
Set-up: method as in PMID 20458050, PMID 20200024
Conditions: phase II studies, recurrent malignant gliomas ref 4, 22

| SMILES | ORR [%] |
| --- | --- |
| COc1cc2c(Oc3ccc4[nH]c(C)cc4c3F)ncnc2cc1OCCCN1CCCC1 [cediranib] | 56.7 |
| Cc1ccc(Nc2nccc(N(C)c3ccc4c(C)n(C)nc4c3)n2)cc1S(N)(=O)=O [pazopanib] | 5.9 |
